Data from ChEMBL document CHEMBL1134285, “Novel agouti-related-protein-based melanocortin-1 receptor antagonist” (J Med Chem, 2001).
Positions of bridges follow the written chain, without caps; N, C: chain ends. Residues, ends and D or L forms follow the SMILES beside them.

Biological target: Melanocortin receptor 4 (Mus musculus, UniProt P56450)
Assay: Antagonist activity against mouse melanocortin-4 receptor (MC4R) using Schild analysis
Format: functional
Settings: for Kb: read-out: pA2 (converted)

Chain of Melanocortin receptor 4 (P56450 whole entry): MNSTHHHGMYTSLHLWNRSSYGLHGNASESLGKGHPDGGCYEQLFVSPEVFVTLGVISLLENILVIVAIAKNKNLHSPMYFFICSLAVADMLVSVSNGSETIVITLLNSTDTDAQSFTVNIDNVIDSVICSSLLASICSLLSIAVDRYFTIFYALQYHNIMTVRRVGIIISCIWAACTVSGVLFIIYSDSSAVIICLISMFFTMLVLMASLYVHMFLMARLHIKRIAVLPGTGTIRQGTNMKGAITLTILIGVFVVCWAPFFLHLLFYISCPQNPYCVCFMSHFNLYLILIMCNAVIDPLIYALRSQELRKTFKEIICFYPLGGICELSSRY

SMILES | pA2 | Kb [nM]
C[C@@H]1NC(=O)[C@H](CC(N)=O)NC(=O)[C@H](Cc2ccccc2)NC(=O)[C@H](Cc2ccccc2)NC(=O)[C@H](CCCN=C(N)N)NC(=O)CC[C@H](NC(=O)[C@@H](N)Cc2ccc(O)cc2)C(=O)NC[C@@H](C(=O)N[C@@H](Cc2ccc(O)cc2)C(N)=O)NC(=O)[C@H](Cc2ccccc2)NC1=O | 6.98 | –
C[C@@H]1NC(=O)[C@H](CC(N)=O)NC(=O)[C@H](Cc2ccccc2)NC(=O)[C@H](Cc2ccccc2)NC(=O)[C@H](CCCNC(=N)N)NC(=O)[C@@H](NC(=O)[C@@H](N)Cc2ccc(O)cc2)CSSC[C@@H](C(=O)N[C@@H](Cc2ccc(O)cc2)C(N)=O)NC(=O)[C@H](Cc2ccccc2)NC1=O (H-YCRFFNAFCY-NH2; disulfide 2-9) | – | 155
C[C@@H]1NC(=O)[C@H](CC(N)=O)NC(=O)[C@H](Cc2ccccc2)NC(=O)[C@H](Cc2ccccc2)NC(=O)[C@H](CCCNC(=N)N)NC(=O)[C@@H](NC(=O)[C@@H](N)Cc2ccc(O)cc2)CC(=O)NC[C@@H](C(=O)N[C@@H](Cc2ccc(O)cc2)C(N)=O)NC(=O)[C@H](Cc2ccccc2)NC1=O | – | 479
